Experimental data published in patent US20250388565A1, “ESTROGEN RECEPTOR ALPHA DEGRADERS AND METHODS OF USE THEREOF” (Relay Therapeutics, Inc., priority 2022, published 2025).

What follows are compounds tested against T1, ERα protein (HiBiT-tagged) in ESR1_HiBiT KI MCF7 cells (Homo sapiens, UniProt P03372) (assay: Nano Glo HiBiT Lytic Degradation Assay). Conditions: 6 hours with compound, 14-point dose response 1:3, bell-shape curve fit, half-maximal effect of first Hill model, read-out: MCF7 ESR1 HiBiT - (DC50).
T1 sequence (P03372 1-595): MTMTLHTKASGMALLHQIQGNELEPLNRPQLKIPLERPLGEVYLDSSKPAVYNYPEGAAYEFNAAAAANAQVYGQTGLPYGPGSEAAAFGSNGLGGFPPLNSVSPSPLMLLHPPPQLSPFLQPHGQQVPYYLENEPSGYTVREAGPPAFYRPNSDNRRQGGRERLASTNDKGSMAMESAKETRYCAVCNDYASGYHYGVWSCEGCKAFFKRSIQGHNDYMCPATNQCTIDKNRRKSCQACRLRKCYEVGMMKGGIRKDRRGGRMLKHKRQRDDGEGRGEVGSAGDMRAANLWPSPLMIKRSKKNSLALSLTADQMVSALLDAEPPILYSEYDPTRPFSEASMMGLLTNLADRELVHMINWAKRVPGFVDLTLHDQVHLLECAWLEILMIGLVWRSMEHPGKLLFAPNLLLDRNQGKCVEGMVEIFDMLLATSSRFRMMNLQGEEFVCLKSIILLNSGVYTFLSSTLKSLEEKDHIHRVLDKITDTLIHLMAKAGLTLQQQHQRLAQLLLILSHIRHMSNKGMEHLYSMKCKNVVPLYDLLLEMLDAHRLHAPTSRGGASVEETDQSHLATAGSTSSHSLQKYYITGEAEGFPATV
Type: cell-based
Summary of the method: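 HiBiT-tagged endogenous ERα remaining in MCF7 knock-in cells was quantified by lytic luminescence after a 6 h treatment. DC50 values derive from a bell-shaped curve, taken at the first Hill component's half-maximal effect.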

DC50	Structure (SMILES)
0.3 nM	Cc1ccc([C@H]2OCc3cc(O)ccc3[C@H]2c2ccc(N3CCC(CN4CCN(c5ccc6c(c5)CN([C@H]5CCC(=O)NC5=O)C6=O)CC4)CC3)cc2)cc1 [Compound I-354, (S)-3-(5-(4-((1-(4-((3S,4R)-7-hydroxy-3-(p-tolyl)isochroman-4-yl)phenyl)piperidin-4-yl)methyl)piperazin-1-yl)-1-oxoisoindolin-2-yl)piperidine-2,6-dione]
1 nM	O=C1CC[C@H](N2Cc3cc(N4CCN(CC5CCN(c6ccc([C@@H]7c8ccc(O)cc8CO[C@@H]7c7cccc(OC(F)(F)F)c7)cc6)CC5)CC4)ccc3C2=O)C(=O)N1 [Compound I-362, (S)-3-(5-(4-((1-(4-((3S,4R)-7-hydroxy-3-(3-(trifluoromethoxy)phenyl)isochroman-4-yl)phenyl)piperidin-4-yl)methyl)piperazin-1-yl)-1-oxoisoindolin-2-yl)piperidine-2,6-dione]
≥ 10000 nM	O=C1CC[C@H](N2Cc3cc(N4CCN(CC5CCN(c6ccc([C@H]7c8ccc(O)cc8CO[C@H]7c7ccc8c(c7)CCC8)cc6)CC5)CC4)ccc3C2=O)C(=O)N1 [Compound I-366, (S)-3-(5-(4-((1-(4-((3R,4S)-3-(2,3-dihydro-1H-inden-5-yl)-7-hydroxyisochroman-4-yl)phenyl)piperidin-4-yl)methyl)piperazin-1-yl)-1-oxoisoindolin-2-yl)piperidine-2,6-dione]
0.78 nM	COc1cccc([C@H]2OCc3cc(O)ccc3[C@H]2c2ccc(N3CCC(CN4CCN(c5ccc6c(c5)CN([C@H]5CCC(=O)NC5=O)C6=O)CC4)CC3)cc2)c1 [Compound I-373, (S)-3-(5-(4-((1-(4-((3S,4R)-7-hydroxy-3-(3-methoxyphenyl)isochroman-4-yl)phenyl)piperidin-4-yl)methyl)piperazin-1-yl)-1-oxoisoindolin-2-yl)piperidine-2,6-dione]
0.62 nM	Cc1cc(F)cc([C@H]2OCc3cc(O)ccc3[C@H]2c2ccc(N3CCC(CN4CCN(c5ccc6c(c5)CN([C@H]5CCC(=O)NC5=O)C6=O)CC4)CC3)cc2)c1 [Compound I-377, (S)-3-(5-(4-((1-(4-((3S,4R)-3-(3-fluoro-5-methylphenyl)-7-hydroxyisochroman-4-yl)phenyl)piperidin-4-yl)methyl)piperazin-1-yl)-1-oxoisoindolin-2-yl)piperidine-2,6-dione]
0.42 nM	O=C1CCN(c2ccc(N3CCC4(CCN(CC5CCN(c6ccc([C@@H]7c8ccc(O)cc8CO[C@@H]7c7ccccc7)cc6)CC5)C4)CC3)cc2)C(=O)N1 [Compound I-391, 1-(4-(2-((1-(4-((3S,4R)-7-hydroxy-3-phenylisochroman-4-yl)phenyl)piperidin-4-yl)methyl)-2,8-diazaspiro[4.5]decan-8-yl)phenyl)dihydropyrimidine-2,4 (1H,3H)-dione]
0.13 nM	Cc1cc(N2CCC3(CCN(CC4CCN(c5ccc([C@@H]6c7ccc(O)cc7CO[C@@H]6c6ccccc6)cc5)CC4)C3)CC2)ccc1N1CCC(=O)NC1=O [Compound I-392, 1-(4-(2-((1-(4-((3S,4R)-7-hydroxy-3-phenylisochroman-4-yl)phenyl)piperidin-4-yl)methyl)-2,8-diazaspiro[4.5]decan-8-yl)-2-methylphenyl)dihydropyrimidine-2,4 (1H,3H)-dione]
0.36 nM	Cn1nc(C2CCC(=O)NC2=O)c2ccc(N3CCN(CC4CCN(c5ccc([C@@H]6c7ccc(O)cc7CO[C@@H]6c6ccccc6)cc5)CC4)CC3)cc21 (stereo partly drawn) [Compound I-393, 3-[6-[4-[[1-[4-[(3S,4R)-7-hydroxy-3-phenyl-isochroman-4-yl]phenyl]-4-piperidyl]methyl]piperazin-1-yl]-1-methyl-indazol-3-yl]piperidine-2,6-dione]
0.99 nM	Cn1nc(N2CCC(=O)NC2=O)c2ccc(N3CCN(CC4CCN(c5ccc([C@@H]6c7ccc(O)cc7CO[C@@H]6c6ccccc6)cc5)CC4)CC3)cc21 [Compound I-396, 1-(6-(4-((1-(4-((3S,4R)-7-hydroxy-3-phenylisochroman-4-yl)phenyl)piperidin-4-yl)methyl)piperazin-1-yl)-1-methyl-1H-indazol-3-yl)dihydropyrimidine-2,4 (1H,3H)-dione]

Further lines, the compound ahead of its results:

Structure (SMILES)	DC50
O=C1CC[C@H](N2Cc3cc(N4CCN(CC5CCN(c6ccc([C@H]7c8ccc(O)cc8CO[C@H]7c7cccc(OC(F)(F)F)c7)cc6)CC5)CC4)ccc3C2=O)C(=O)N1 [Compound I-361, (S)-3-(5-(4-((1-(4-((3R,4S)-7-hydroxy-3-(3-(trifluoromethoxy)phenyl)isochroman-4-yl)phenyl)piperidin-4-yl)methyl)piperazin-1-yl)-1-oxoisoindolin-2-yl)piperidine-2,6-dione]	≥ 10000 nM
O=C1CC[C@H](N2Cc3cc(N4CCN(CC5CCN(c6ccc([C@@H]7c8ccc(O)cc8CO[C@@H]7c7ccc8c(c7)CCC8)cc6)CC5)CC4)ccc3C2=O)C(=O)N1 [Compound I-365, (S)-3-(5-(4-((1-(4-((3S,4R)-3-(2,3-dihydro-1H-inden-5-yl)-7-hydroxyisochroman-4-yl)phenyl)piperidin-4-yl)methyl)piperazin-1-yl)-1-oxoisoindolin-2-yl)piperidine-2,6-dione]	0.24 nM
Cc1cc(F)c([C@H]2OCc3cc(O)ccc3[C@H]2c2ccc(N3CCC(CN4CCN(c5ccc6c(c5)CN([C@H]5CCC(=O)NC5=O)C6=O)CC4)CC3)cc2)cc1F [Compound I-369, (S)-3-(5-(4-((1-(4-((3S,4R)-3-(2,5-difluoro-4-methylphenyl)-7-hydroxyisochroman-4-yl)phenyl)piperidin-4-yl)methyl)piperazin-1-yl)-1-oxoisoindolin-2-yl)piperidine-2,6-dione]	0.34 nM
Cc1cc(F)c([C@@H]2OCc3cc(O)ccc3[C@@H]2c2ccc(N3CCC(CN4CCN(c5ccc6c(c5)CN([C@H]5CCC(=O)NC5=O)C6=O)CC4)CC3)cc2)cc1F [Compound I-370, (S)-3-(5-(4-((1-(4-((3R,4S)-3-(2,5-difluoro-4-methylphenyl)-7-hydroxyisochroman-4-yl)phenyl)piperidin-4-yl)methyl)piperazin-1-yl)-1-oxoisoindolin-2-yl)piperidine-2,6-dione]	3300 nM
Cc1cc(F)ccc1[C@H]1OCc2cc(O)ccc2[C@H]1c1ccc(N2CCC(CN3CCN(c4ccc5c(c4)CN([C@H]4CCC(=O)NC4=O)C5=O)CC3)CC2)cc1 [Compound I-371, (S)-3-(5-(4-((1-(4-((3S,4R)-3-(4-fluoro-2-methylphenyl)-7-hydroxyisochroman-4-yl)phenyl)piperidin-4-yl)methyl)piperazin-1-yl)-1-oxoisoindolin-2-yl)piperidine-2,6-dione]	0.17 nM
Cc1cc(F)ccc1[C@@H]1OCc2cc(O)ccc2[C@@H]1c1ccc(N2CCC(CN3CCN(c4ccc5c(c4)CN([C@H]4CCC(=O)NC4=O)C5=O)CC3)CC2)cc1 [Compound I-372, (S)-3-(5-(4-((1-(4-((3R,4S)-3-(4-fluoro-2-methylphenyl)-7-hydroxyisochroman-4-yl)phenyl)piperidin-4-yl)methyl)piperazin-1-yl)-1-oxoisoindolin-2-yl)piperidine-2,6-dione]	27 nM
COc1cccc([C@@H]2OCc3cc(O)ccc3[C@@H]2c2ccc(N3CCC(CN4CCN(c5ccc6c(c5)CN([C@H]5CCC(=O)NC5=O)C6=O)CC4)CC3)cc2)c1 [Compound I-374, (S)-3-(5-(4-((1-(4-((3R,4S)-7-hydroxy-3-(3-methoxyphenyl)isochroman-4-yl)phenyl)piperidin-4-yl)methyl)piperazin-1-yl)-1-oxoisoindolin-2-yl)piperidine-2,6-dione]	8 nM
Cc1cc([C@H]2OCc3cc(O)ccc3[C@H]2c2ccc(N3CCC(CN4CCN(c5ccc6c(c5)CN([C@H]5CCC(=O)NC5=O)C6=O)CC4)CC3)cc2)ccc1F [Compound I-375, (S)-3-(5-(4-((1-(4-((3S,4R)-3-(4-fluoro-3-methylphenyl)-7-hydroxyisochroman-4-yl)phenyl)piperidin-4-yl)methyl)piperazin-1-yl)-1-oxoisoindolin-2-yl)piperidine-2,6-dione]	0.89 nM
Cc1cc([C@@H]2OCc3cc(O)ccc3[C@@H]2c2ccc(N3CCC(CN4CCN(c5ccc6c(c5)CN([C@H]5CCC(=O)NC5=O)C6=O)CC4)CC3)cc2)ccc1F [Compound I-376, (S)-3-(5-(4-((1-(4-((3R,4S)-3-(4-fluoro-3-methylphenyl)-7-hydroxyisochroman-4-yl)phenyl)piperidin-4-yl)methyl)piperazin-1-yl)-1-oxoisoindolin-2-yl)piperidine-2,6-dione]	≥ 10000 nM
Cc1cc(F)cc([C@@H]2OCc3cc(O)ccc3[C@@H]2c2ccc(N3CCC(CN4CCN(c5ccc6c(c5)CN([C@H]5CCC(=O)NC5=O)C6=O)CC4)CC3)cc2)c1 [Compound I-378, (S)-3-(5-(4-((1-(4-((3R,4S)-3-(3-fluoro-5-methylphenyl)-7-hydroxyisochroman-4-yl)phenyl)piperidin-4-yl)methyl)piperazin-1-yl)-1-oxoisoindolin-2-yl)piperidine-2,6-dione]	≥ 10000 nM
